The numbers were not newly measured in patent US20210319872A1, “DRUG AND DEVICE COMBINATION PRODUCTS WITH IMPROVED SAFETY AND EFFICACY PROFILES” (priority 2016, published 2021), which cites them from elsewhere.

Read-outs that look alike come from different tables or passages of the source.

The conditions of data set [1]: older adults.
The conditions of data set [2]: patients who had been started on the drug.

With `[Li]` [lithium], the clearance rate entry in data set [1] was “reduced”.
On to `CC[C@H]1OC(=O)[C@H](C)[C@@H](O[C@H]2C[C@@](C)(OC)[C@@H](O)[C@H](C)O2)[C@H](C)[C@@H](O[C@@H]2O[C@H](C)C[C@H](N(C)C)[C@H]2O)[C@](C)(OC)C[C@@H](C)C(=O)[C@H](C)[C@@H](O)[C@]1(C)O` [clarithromycin], for which, in data set [2], the “Digoxin toxicity, times more likely” value is reported as 12 times.
Turning to `CN(C)CCC[C@@]1(c2ccc(F)cc2)OCc2cc(C#N)ccc21` [Escitalopram (Lexapro)], where the note is “in vivo”, the Abdominal pain result was “Gastrointestinal: Abdominal pain (2%), Constipation (3% to 6%),”; the Constipation result was “Gastrointestinal: Abdominal pain (2%), Constipation (3% to 6%),”; the Diaphoresis result is “Dermatologic: Diaphoresis (3% to 8%)”; the Diarrhea entry is listed as “Diarrhea (6% to 14%), Indigestion (2% to 6%), Nausea (15% to”. For the same molecule, where the note is “in vivo”, the Disorder of ejaculation result is “Reproductive: Disorder of ejaculation (9% to 14%), Erectile”; the Dizziness result was “Neurologic: Dizziness (4% to 7%), Headache (24%), Insomnia (7%”; the Erectile dysfunction entry is “dysfunction (3%), Orgasm incapacity (females, 2% to 6%),”; the Fatigue result is given as “Other: Fatigue (5% to 8%)”. Further, under “in vivo”, the Headache entry is given as “Neurologic: Dizziness (4% to 7%), Headache (24%), Insomnia (7%”; the Indigestion entry was “Diarrhea (6% to 14%), Indigestion (2% to 6%), Nausea (15% to”; the Insomnia result was “Neurologic: Dizziness (4% to 7%), Headache (24%), Insomnia (7%”; the Orgasm incapacity entry is “dysfunction (3%), Orgasm incapacity (females, 2% to 6%),”. Under “in vivo”, the Reduced libido result was “Reduced libido (3% to 7%)”; the Somnolence entry was “to 14%), Somnolence (4% to 13%)”; the Vomiting is ≤ 18%), Vomiting (up to 3%), Xerostomia (4% to 9%); the Xerostomia is recorded as 18%), Vomiting (up to 3%), Xerostomia (4% to 9%).
As to `CC(C)(C)NCC(O)COc1cccc2c1CCC(=O)N2` (stereo not drawn) [Carteolol (Cartrol)], for the setting “in vivo”, the Asthenia result was “Neurologic: Asthenia (7%.), Dizziness (4% to 15%.), Headache”; the “Burning sensation in eye” value is listed as “Ophthalmic: Blurred vision, Burning sensation in eye (25%),”; the Conjunctival edema result was “Conjunctival edema (25%), Conjunctival hyperemia (25%),”; the Conjunctival hyperemia entry is “Conjunctival edema (25%), Conjunctival hyperemia (25%),”. For the setting “in vivo”, the Dizziness entry is “Neurologic: Asthenia (7%.), Dizziness (4% to 15%.), Headache”; the Epiphora result is “Epiphora (25%), Eye irritation (25%)”; the Eye irritation result is on record as “Epiphora (25%), Eye irritation (25%)”; the Headache entry is “(4% to 17%.), Insomnia (2% to 12%.)”. Further, under “in vivo”, the Insomnia result was “(4% to 17%.), Insomnia (2% to 12%.)”.
`C[C@H]1O[C@@H](O[C@H]2[C@@H](O)C[C@H](O[C@H]3[C@@H](O)C[C@H](O[C@H]4CC[C@@]5(C)[C@H](CC[C@@H]6[C@@H]5CC[C@]5(C)[C@@H](C7=CC(=O)OC7)CC[C@]65O)C4)O[C@@H]3C)O[C@@H]2C)C[C@H](O)[C@@H]1O` [Digitoxin]: for the setting “in vivo”, the “Common side effects, listed without incidence” value is listed as “Enlarged Breasts” and the “Infrequent side effects, listed” value is “Sinus Bradycardia”.
`CN(C)CCCC1(c2ccc(F)cc2)OCc2cc(C#N)ccc21` (stereo not drawn) [Citalopram (Celexa)]: under “in vivo”, the Agitation result is “Psychiatric: Agitation (3% to 10%)”; the Cerebrovascular accident entry is listed as “Neurologic: Cerebrovascular accident (0.1% to less than 1%)”; the Constipation entry is given as “Gastrointestinal: Constipation (13%), Diarrhea (8%), Nausea (20%”; the Diaphoresis entry is “Dermatologic: Diaphoresis (5% to 18%)”. Besides, for the setting “in vivo”, the Diarrhea result is “Gastrointestinal: Constipation (13%), Diarrhea (8%), Nausea (20%”; the Disorder of ejaculation result is given as “Reproductive: Disorder of ejaculation (6.1%)”; the Dizziness result is reported as “Neurologic: Dizziness (14%), Headache (18%), Insomnia (15%),”; the Fatigue entry is listed as “Other: Fatigue (5%)”. In addition, for the setting “in vivo”, the Headache entry was “Neurologic: Dizziness (14%), Headache (18%), Insomnia (15%),”; the Insomnia entry is given as “Neurologic: Dizziness (14%), Headache (18%), Insomnia (15%),”; the Myocardial infarction result was “Cardiovascular: Myocardial infarction (0.1% to 1%), Prolonged QT”; the Nausea entry is given as “Gastrointestinal: Constipation (13%), Diarrhea (8%), Nausea (20%”. In addition, for the setting “in vivo”, the “Prolonged QT interval” value is “interval (0.5% to 1.9%), Torsades de pointes”; the Sedated result is on record as “Sedated (15%), Somnolence (18%), Tremor (8% to 16%)”; the Somnolence entry is “Sedated (15%), Somnolence (18%), Tremor (8% to 16%)”; the Tremor entry is listed as “Sedated (15%), Somnolence (18%), Tremor (8% to 16%)”. For the setting “in vivo”, the Vomiting result is “to 21%), Vomiting (4% to 20%), Xerostomia (17% to 20%)” and the Xerostomia result is “to 21%), Vomiting (4% to 20%), Xerostomia (17% to 20%)”.
`CNCCC(Oc1ccc(C(F)(F)F)cc1)c1ccccc1` (stereo not drawn) [Fluoxetine (Prozac)]: for the setting “in vivo”, the Anxiety result is listed as “Psychiatric: Anxiety (3% to 15%), Feeling nervous (3% to 14%)”; the Asthenia entry is given as “Neurologic: Asthenia (7% to 21%), Dizziness (2% to 11%),”; the Diarrhea entry is “Gastrointestinal: Diarrhea (8% to 18%), Indigestion (6% to 10%),”; the Dizziness result is reported as “Neurologic: Asthenia (7% to 21%), Dizziness (2% to 11%),”. Where the note is “in vivo”, the Feeling nervous result is recorded as “Psychiatric: Anxiety (3% to 15%), Feeling nervous (3% to 14%)”; the Indigestion result is given as “Gastrointestinal: Diarrhea (8% to 18%), Indigestion (6% to 10%),”; the Influenza-like symptoms entry is on record as “Other: Influenza-like symptoms (3% to 12%)”; the Insomnia entry is given as “Insomnia (9% to 33%), Somnolence (5% to 17%), Tremor (3% to”. Further, under “in vivo”, the Nausea entry was “Loss of appetite (3.8% to 17%), Nausea (12% to 29%), Xerostomia”; the Pharyngitis entry is recorded as “Respiratory: Pharyngitis (3% to 11%), Rhinitis (16% to 23%)”; the Rhinitis entry is “Respiratory: Pharyngitis (3% to 11%), Rhinitis (16% to 23%)”; the Seizure entry is reported as “Neurologic: Seizure (0.2%)”. In addition, the Xerostomia result (in vivo) was “(4% to 12%)”.
With `Cc1ccc(-c2nc3ccc(C)cn3c2CC(=O)N(C)C)cc1` [Ambien (zolpidem)], under “in vivo”, the Allergic reaction result is listed as “Immunologic: Allergic reaction (4%)”; the Anaphylaxis entry is listed as “Immunologic: Anaphylaxis (rare)”; the Angioedema result was “Other: Angioedema (rare)”; the Chest pain entry is recorded as “Cardiovascular: Chest pain (1%), Tachycardia (0.1% to 1%)”. Moreover, where the note is “in vivo”, the Diarrhea result was “Gastrointestinal: Diarrhea (1% to 3%), Nausea (1% to 7%)”; the Dizziness entry is on record as “Neurologic: Dizziness (1% to 23.5%), Drugged state (3%),”; the Drugged state result is “Neurologic: Dizziness (1% to 23.5%), Drugged state (3%),”; the Fatigue entry is reported as “Other: Fatigue (0.1% to 3%)”. For the setting “in vivo”, the Headache entry is “Headache (1% to 19%), Somnolence (2% to 15%)”; the Nausea result is “Gastrointestinal: Diarrhea (1% to 3%), Nausea (1% to 7%)”; the “Serious side effect, Neurologic” value is “Neurologic: Hepatic encephalopathy”; the Somnolence entry is on record as “Headache (1% to 19%), Somnolence (2% to 15%)”. Further, for the setting “in vivo”, the Tachycardia entry was “Cardiovascular: Chest pain (1%), Tachycardia (0.1% to 1%)” and the Visual disturbance entry was “Ophthalmic: Visual disturbance (3%)”.
Turning to `COc1cccc(C2(O)CCCCC2CN(C)C)c1` (stereo not drawn) [Tramadol (Ultram)], where the note is “in vivo”, the Anaphylactoid reaction entry is recorded as “Immunologic: Anaphylactoid reaction (less than 1%)”; the Constipation entry is listed as “Gastrointestinal: Constipation (10% to 46%), Nausea (13% to”; the Dizziness result is listed as “Neurologic: Dizziness (7% to 33%), Headache (3% to 32%),”; the Dyspnea entry is reported as “Respiratory: Dyspnea (less than 5%), Respiratory depression”. For the setting “in vivo”, the Flushing entry is “Dermatologic: Flushing (7.7% to 15.8%), Pruritus (3% to 11.9%)”; the Headache result was “Neurologic: Dizziness (7% to 33%), Headache (3% to 32%),”; the Insomnia entry is listed as “Insomnia (1% to 10.9%), Somnolence (4% to 25%)”; the Myocardial infarction result is on record as “Cardiovascular: Myocardial infarction (0.5% to less than 1%)”. Further, for the setting “in vivo”, the Pancreatitis entry is “Gastrointestinal: Pancreatitis (0.5% to less than 1%)”; the Pruritus entry was “Dermatologic: Flushing (7.7% to 15.8%), Pruritus (3% to 11.9%)”; the Serotonin syndrome result is reported as “Other: Serotonin syndrome (less than 1%)”; the Somnolence result was “Insomnia (1% to 10.9%), Somnolence (4% to 25%)”. Further, where the note is “in vivo”, the Vomiting is on record as 40%), Vomiting (3% to 17%), Xerostomia (1% to 10%) and the Xerostomia is 40%), Vomiting (3% to 17%), Xerostomia (1% to 10%).
For `CC(=O)O[C@]1(C(C)=O)CC[C@H]2[C@@H]3CCC4=CC(=O)CCC4=C3[C@@H](c3ccc(N(C)C)cc3)C[C@@]21C` [Ella], for the setting “in vivo”, the Headache entry is reported as “Neurologic: Headache (18% to 19%)”.
In the case of `Cc1ccsc1C(=CCCN1CCC[C@@H](C(=O)O)C1)c1sccc1C` [Gabitril], for the setting “in vivo”, the Confusion was 5%, the Disturbance in speech is reported as 4%, the Nausea is on record as 11% and the Pruritus entry was “Dermatologic: Pruritus (2%)”. Under “listed without frequency”, the “Serious side effect, Dermatologic” value is given as “Dermatologic: Stevens-Johnson syndrome”; the “Serious side effect, Neurologic” value is listed as “Seizure, in patients without epilepsy”; the “Serious side effect, Psychiatric” value was “Psychiatric: Suicidal thoughts”.
Consider `CCOC(=O)[C@H](CCc1ccccc1)N[C@@H](C)C(=O)N1CCC[C@H]1C(=O)O` [Enalapril (Vasotec)], for which, for the setting “in vivo”, the Angioedema entry is listed as “Other: Angioedema (0.1% to 1%)”, the Dizziness entry is “Neurologic: Dizziness (4.3% to 7.9%)”, the Fatigue result was “Other: Fatigue (3%)” and the Hyperkalemia result is “Endocrine metabolic: Hyperkalemia (1% to 3.8%)”. For the setting “in vivo”, the Hypotension entry is “Cardiovascular: Hypotension (0.9% to 6.7%)” and the Serum creatinine raised entry is given as “raised (0.2% (hypertension) to 20% (hypertension with renal artery”.
As to `CCOc1nc2cccc(C(=O)O)c2n1Cc1ccc(-c2ccccc2-c2nnn[nH]2)cc1` [Candesartan (Atacand)], for the setting “in vivo”, the Backache entry is recorded as “Musculoskeletal: Backache (3%.)”; the Dizziness entry is given as “Neurologic: Dizziness (less than 5%)”; the Hypotension result is “Cardiovascular: Hypotension (18.8%)”; the Pharyngitis entry is reported as “Respiratory: Pharyngitis (2%), Rhinitis (2%), Upper respiratory”. Also, under “in vivo”, the Rhinitis entry was “Respiratory: Pharyngitis (2%), Rhinitis (2%), Upper respiratory” and the Upper respiratory infection entry is “infection (6%)”.
